These are literature values, as cited in patent publication US20160101140A1, “Method for Processing Rosaceous Kernels” (priority 2014, published 2016).

For the data set, the system named is tumors. To be noted: finding of Sugiura.

Turning to `N#C[C@H](O[C@@H]1O[C@H](CO[C@@H]2O[C@H](CO)[C@@H](O)[C@H](O)[C@H]2O)[C@@H](O)[C@H](O)[C@H]1O)c1ccccc1` [Vit B17, amygdalin], the “occurrence of a cancer” value is on record as “can inhibit an occurrence of a cancer” and the “pain caused by the cancer” value is recorded as “can lessen the pain caused by the cancer”. In addition, the anti-cancer activity result (background section) is “had anti-cancer activity”. In addition, the “inhibition of secondary tumors” value (mice) is on record as “inhibited secondary tumors in mice”.
